Where a SMILES comes first, the peptide text is derived from it. Bridges are numbered along the chain shown (N, C = ends). [ ]: non-standard residue; d: D form. The star is where a group is joined. Phe(4-COOH) = N[C@@H](Cc1ccc(C(=O)O)cc1)C(=O)O; Bip = N[C@@H](Cc1ccc(-c2ccccc2)cc1)C(=O)O; 4Pal = N[C@@H](Cc1ccncc1)C(=O)O; Cha = N[C@@H](CC1CCCCC1)C(=O)O; Cit = NC(=O)NCCC[C@H](N)C(=O)O; 12Ado = NCCCCCCCCCCCC(=O)O; Carboxymethyl = O=C(O)C*; NMeA = CN[C@@H](C)C(=O)O; Orn = NCCC[C@H](N)C(=O)O; Aun = NCCCCCCCCCCC(=O)O; Dab = NCC[C@H](N)C(=O)O; Dap = NC[C@H](N)C(=O)O; AEEA = NCCOCCOCC(=O)O
The compounds below were run against T1, PD-1/PD-L1 interaction (PE-labeled human PD-L1-Ig binding to Jurkat cell line over-expressing human PD-1) (Homo sapiens, UniProt Q15116) (assay: Jurkat-PD-1 Cell Binding High-Content Screening Assay (CBA)). Details: Jurkat-hPD-1 cells, PE-labeled PD-L1-Ig 20 nM final; read-out: Jurkat HPD1 PDL1 IC50.
T1 construct: expressed in transfected cells; host or cells: Jurkat
T1 sequence (Q15116 25-288): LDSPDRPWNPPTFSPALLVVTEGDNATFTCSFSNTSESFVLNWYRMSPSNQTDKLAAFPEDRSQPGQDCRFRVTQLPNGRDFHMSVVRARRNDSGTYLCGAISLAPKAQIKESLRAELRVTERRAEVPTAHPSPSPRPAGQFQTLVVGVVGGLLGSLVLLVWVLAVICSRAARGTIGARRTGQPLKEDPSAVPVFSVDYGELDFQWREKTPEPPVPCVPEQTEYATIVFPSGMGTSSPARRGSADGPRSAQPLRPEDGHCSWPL
Method in brief: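 Jurkat-hPD-1 cells (8×10^3/well) in DMEM with 10% fetal calf serum were preincubated with compound for 2 h at 37 °C. PE-labeled PD-L1-Ig was then added at 20 nM final for 1 h. Cells were fixed in paraformaldehyde with Hoechst 33342, washed and imaged by high-content imaging.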

| SMILES | IC50 [nM] |
| --- | --- |
| CC(C)C[C@@H]1NC(=O)[C@H](Cc2c[nH]c3ccccc23)NC(=O)[C@H](CC(=O)O)NC(=O)[C@H](Cc2ccc(OCC(=O)O)cc2)NC(=O)[C@H](Cc2ccc(OCC(=O)O)cc2)NC(=O)CSC[C@@H](C(=O)NCCOCCOCC(=O)N[C@@H](CCN)C(=O)NCCCCCCCCCCC(=O)O)NC(=O)[C@H](CCCN)NC(=O)[C@H](C(C)C)NC(=O)[C@H](CC2CCCCC2)NC(=O)[C@H](CCN)NC(=O)[C@@H](CC(C)C)NC(=O)[C@H](C)N(C)C(=O)[C@H](C(C)C)NC(=O)[C@H](Cc2ccc(-c3ccccc3)cc2)NC1=O [Example 2158] ({CH2CO}-Y(Carboxymethyl)Y(Carboxymethyl)DWL[Bip]V[NMeA][dL][Dab][Cha]V[Orn]C[AEEA][Dab][Aun]-OH; thioether N-14) | 20 |
| CC(C)C[C@@H]1NC(=O)[C@H](Cc2c[nH]c3ccccc23)NC(=O)[C@H](CC(=O)O)NC(=O)[C@H](Cc2ccc(C(=O)O)cc2)NC(=O)[C@H](Cc2ccc(OCC(=O)O)cc2)NC(=O)CSC[C@@H](C(=O)N[C@@H](CCCCN)C(=O)NCCCCCCCCCCC(=O)O)NC(=O)[C@H](CCCN)NC(=O)[C@H](C(C)C)NC(=O)[C@H](CC2CCCCC2)NC(=O)[C@H](CCN)NC(=O)[C@@H](CC(C)C)NC(=O)[C@H](C)N(C)C(=O)[C@H](C(C)C)NC(=O)[C@H](Cc2ccc(-c3ccccc3)cc2)NC1=O [Example 2159] ({CH2CO}-Y(Carboxymethyl)[Phe(4-COOH)]DWL[Bip]V[NMeA][dL][Dab][Cha]V[Orn]CK[Aun]-OH; thioether N-14) | 17.8 |
| CC(C)C[C@H]1NC(=O)[C@H](C)N(C)C(=O)[C@H](C(C)C)NC(=O)[C@H](Cc2ccc(-c3ccccc3)cc2)NC(=O)[C@H](C(C)C)NC(=O)[C@H](Cc2c[nH]c3ccccc23)NC(=O)[C@H](CC(=O)O)NC(=O)[C@H](Cc2ccc(OCC(=O)O)cc2)NC(=O)[C@H](CCCNC(=N)N)NC(=O)CSC[C@@H](C(=O)NCC(=O)NCCOCCOCC(=O)N[C@@H](CCCN)C(=O)NCCCCCCCCCCCC(=O)O)NC(=O)[C@H](CCCN)NC(=O)[C@H](C(C)C)NC(=O)[C@H](CC2CCCCC2)NC(=O)[C@H](CCN)NC1=O [Example 2160] ({CH2CO}-RY(Carboxymethyl)DWV[Bip]V[NMeA][dL][Dab][Cha]V[Orn]CG[AEEA][Orn][12Ado]-OH; thioether N-14) | 12.2 |
| CC(C)C[C@@H]1NC(=O)[C@H](Cc2c[nH]c3ccccc23)NC(=O)[C@H](CC(=O)O)NC(=O)[C@H](Cc2ccc(O)cc2)NC(=O)[C@H](Cc2ccncc2)NC(=O)CSC[C@@H](C(=O)N[C@@H](CCCN)C(=O)NCCOCCOCC(=O)NCCCCCCCCCCC(=O)O)NC(=O)[C@H](CCCN)NC(=O)[C@H](C(C)C)NC(=O)[C@H](CC2CCCCC2)NC(=O)[C@H](CCN)NC(=O)[C@@H](CC(C)C)NC(=O)[C@H](C)N(C)C(=O)[C@H](C(C)C)NC(=O)[C@H](Cc2ccc(-c3ccccc3)cc2)NC1=O [Example 2161] ({CH2CO}-[4Pal]YDWL[Bip]V[NMeA][dL][Dab][Cha]V[Orn]C[Orn][AEEA][Aun]-OH; thioether N-14) | 122 |
| CC(C)C[C@@H]1NC(=O)[C@H](Cc2c[nH]c3ccccc23)NC(=O)[C@H](CC(=O)O)NC(=O)[C@H](Cc2ccc(C(=O)O)cc2)NC(=O)[C@H](Cc2ccc(OCC(=O)O)cc2)NC(=O)CSC[C@@H](C(=O)NCC(=O)NCCOCCOCC(=O)N[C@@H](CCCN)C(=O)NCCCCCCCCCCC(=O)O)NC(=O)[C@H](CCCN)NC(=O)[C@H](C(C)C)NC(=O)[C@H](CC2CCCCC2)NC(=O)[C@H](CCN)NC(=O)[C@@H](CC(C)C)NC(=O)[C@H](C)N(C)C(=O)[C@H](C(C)C)NC(=O)[C@H](Cc2ccc(-c3ccccc3)cc2)NC1=O [Example 2162] ({CH2CO}-Y(Carboxymethyl)[Phe(4-COOH)]DWL[Bip]V[NMeA][dL][Dab][Cha]V[Orn]CG[AEEA][Orn][Aun]-OH; thioether N-14) | 7.8 |
| CC(C)C[C@@H]1NC(=O)[C@H](Cc2c[nH]c3ccccc23)NC(=O)[C@H](CC(=O)O)NC(=O)[C@H](Cc2ccc(O)cc2)NC(=O)[C@H](Cc2ccncc2)NC(=O)CSC[C@@H](C(=O)NCCOCCOCC(=O)N[C@@H](CCCN)C(=O)NCCCCCCCCCCC(=O)O)NC(=O)[C@H](CCCN)NC(=O)[C@H](C(C)C)NC(=O)[C@H](CC2CCCCC2)NC(=O)[C@H](CCN)NC(=O)[C@@H](CC(C)C)NC(=O)[C@H](C)N(C)C(=O)[C@H](C(C)C)NC(=O)[C@H](Cc2ccc(-c3ccccc3)cc2)NC1=O [Example 2163] ({CH2CO}-[4Pal]YDWL[Bip]V[NMeA][dL][Dab][Cha]V[Orn]C[AEEA][Orn][Aun]-OH; thioether N-14) | 17.6 |
| CC(C)C[C@@H]1NC(=O)[C@H](Cc2c[nH]c3ccccc23)NC(=O)[C@H](CC(=O)O)NC(=O)[C@H](Cc2ccncc2)NC(=O)[C@H](Cc2ccc(OCC(=O)O)cc2)NC(=O)CSC[C@@H](C(=O)NCCOCCOCC(=O)N[C@@H](CN)C(=O)NCCCCCCCCCCC(=O)O)NC(=O)[C@H](CCCNC(N)=O)NC(=O)[C@H](C(C)C)NC(=O)[C@H](CC2CCCCC2)NC(=O)[C@H](CCN)NC(=O)[C@@H](CC(C)C)NC(=O)[C@H](C)N(C)C(=O)[C@H](C(C)C)NC(=O)[C@H](Cc2ccc(-c3ccccc3)cc2)NC1=O [Example 2164] ({CH2CO}-Y(Carboxymethyl)[4Pal]DWL[Bip]V[NMeA][dL][Dab][Cha]V[Cit]C[AEEA][Dap][Aun]-OH; thioether N-14) | 11.9 |
| CC(C)C[C@@H]1NC(=O)[C@H](Cc2c[nH]c3ccccc23)NC(=O)[C@H](CC(=O)O)NC(=O)[C@H](Cc2ccncc2)NC(=O)[C@H](Cc2ccc(OCC(=O)O)cc2)NC(=O)CSC[C@@H](C(=O)N[C@@H](CCCN)C(=O)NCCOCCOCC(=O)NCCCCCCCCCCC(=O)O)NC(=O)[C@H](CCCNC(N)=O)NC(=O)[C@H](C(C)C)NC(=O)[C@H](CC2CCCCC2)NC(=O)[C@H](CN)NC(=O)[C@@H](CC(C)C)NC(=O)[C@H](C)N(C)C(=O)[C@H](C(C)C)NC(=O)[C@H](Cc2ccc(-c3ccccc3)cc2)NC1=O [Example 2166] ({CH2CO}-Y(Carboxymethyl)[4Pal]DWL[Bip]V[NMeA][dL][Dap][Cha]V[Cit]C[Orn][AEEA][Aun]-OH; thioether N-14) | 24.7 |
| CC(C)C[C@@H]1NC(=O)[C@H](Cc2c[nH]c3ccccc23)NC(=O)[C@H](CC(=O)O)NC(=O)[C@H](Cc2ccncc2)NC(=O)[C@H](Cc2ccc(OCC(=O)O)cc2)NC(=O)CSC[C@@H](C(=O)N[C@@H](CCCNC(N)=O)C(=O)NCCOCCOCC(=O)NCCCCCCCCCCC(=O)O)NC(=O)[C@H](CCCNC(N)=O)NC(=O)[C@H](C(C)C)NC(=O)[C@H](CC2CCCCC2)NC(=O)[C@H](CCN)NC(=O)[C@@H](CC(C)C)NC(=O)[C@H](C)N(C)C(=O)[C@H](C(C)C)NC(=O)[C@H](Cc2ccc(-c3ccccc3)cc2)NC1=O [Example 2167] ({CH2CO}-Y(Carboxymethyl)[4Pal]DWL[Bip]V[NMeA][dL][Dab][Cha]V[Cit]C[Cit][AEEA][Aun]-OH; thioether N-14) | 24.4 |
| CC(C)C[C@@H]1NC(=O)[C@H](Cc2c[nH]c3ccccc23)NC(=O)[C@H](CC(=O)O)NC(=O)[C@H](Cc2ccncc2)NC(=O)[C@H](Cc2ccc(OCC(=O)O)cc2)NC(=O)CSC[C@@H](C(=O)NCCOCCOCC(=O)N[C@@H](CCCN)C(=O)NCCCCCCCCCCC(=O)O)NC(=O)[C@H](CCCNC(N)=O)NC(=O)[C@H](C(C)C)NC(=O)[C@H](CC2CCCCC2)NC(=O)[C@H](CCN)NC(=O)[C@@H](CC(C)C)NC(=O)[C@H](C)N(C)C(=O)[C@H](C(C)C)NC(=O)[C@H](Cc2ccc(-c3ccccc3)cc2)NC1=O [Example 2168] ({CH2CO}-Y(Carboxymethyl)[4Pal]DWL[Bip]V[NMeA][dL][Dab][Cha]V[Cit]C[AEEA][Orn][Aun]-OH; thioether N-14) | 9 |
